Experimental data reported in publication PMC3152678 (Bioorganic & medicinal chemistry, 2011).

Experiments:
[1] = over the course of a week; cited from earlier work
[2] = format: physicochemical; conditions: Luria-Bertani medium, 37 °C; pseudo first-order
[3] = system: immune response; conditions: mice; cited from earlier work
[4] = target: T1, TraR (Agrobacterium tumefaciens, UniProt P33905); assay: TraR antagonism assay in A. tumefaciens WCF; format: cell-based; conditions: 10 μM, in the presence of OOHL
T1 sequence (P33905 whole entry): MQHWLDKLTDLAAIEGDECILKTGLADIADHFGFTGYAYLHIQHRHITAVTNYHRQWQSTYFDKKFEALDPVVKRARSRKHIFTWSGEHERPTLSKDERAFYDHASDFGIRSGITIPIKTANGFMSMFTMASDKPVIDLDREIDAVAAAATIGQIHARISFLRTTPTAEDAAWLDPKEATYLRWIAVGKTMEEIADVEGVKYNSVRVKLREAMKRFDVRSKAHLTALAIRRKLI

[5] = target: T2, LasR (Pseudomonas aeruginosa, UniProt P25084); assay: LasR reporter gene antagonism assay in E. coli DH5α; format: cell-based; conditions: E. coli reporter strain
T2 sequence (P25084 whole entry): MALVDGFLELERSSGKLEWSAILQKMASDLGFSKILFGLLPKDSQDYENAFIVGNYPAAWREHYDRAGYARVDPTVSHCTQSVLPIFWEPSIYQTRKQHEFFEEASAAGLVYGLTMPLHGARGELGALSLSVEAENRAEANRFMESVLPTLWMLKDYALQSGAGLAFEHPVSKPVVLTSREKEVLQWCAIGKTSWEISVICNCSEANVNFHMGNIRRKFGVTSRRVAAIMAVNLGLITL

[6] = target: LuxR (Aliivibrio fischeri, UniProt P35327); assay: LuxR antagonism assay in V. fischeri ESI 114; format: cell-based, Vibrio fischeri
Chain of LuxR (P35327 whole entry): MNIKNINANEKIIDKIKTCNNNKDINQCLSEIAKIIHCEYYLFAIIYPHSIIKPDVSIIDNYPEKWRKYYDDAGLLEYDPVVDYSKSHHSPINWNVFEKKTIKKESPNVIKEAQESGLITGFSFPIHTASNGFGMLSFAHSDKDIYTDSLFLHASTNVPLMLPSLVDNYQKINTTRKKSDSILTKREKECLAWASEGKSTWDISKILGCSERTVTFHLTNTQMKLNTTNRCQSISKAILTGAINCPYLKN

[7] = target: T2, LasR; assay: LasR reporter gene agonism assay in E. coli DH5α; format: cell-based; conditions: E. coli LasR reporter strain
[8] = target: T2, LasR; assay: LasR reporter gene agonism assay in P. aeruginosa PA01 MW1; format: cell-based; conditions: P. aeruginosa LasR reporter strain
[9] = target: T1, TraR; format: cell-based; conditions: dose response

What does the source list for `CCCCCCCCCC(=O)CC(=O)N[C@H]1CCOC1=O` [OdDHL, N-(3-oxo)-dodecanoyl HL, reference compound]?
racemization of the chiral center [1]: less than 5%; slope of natural log of percent of positive control vs time [2]: −0.01399 ± 0.0006

With `CCCCCCCCCC(=O)CC(=O)N[C@H]1CCSC1=O` [Compound 15] as the compound, how does the “times less of an immune response than the native OdDHL” value [3] read?
Its value is “approximately 40 times”.

And the “slope of natural log of percent of positive control vs time” value [2]?
The value was −0.01025 ± 0.0004.

For `CCCC(=O)N[C@H]1CCSC1=O` [Compound 19], which “TraR agonism in the antagonism assay (more than OOHL alone)” value (“TraR agonism in the antagonism assay” for short) [4] is on record?
Its value is “over 70%”.

With `CCCCCC(=O)N[C@H]1CCSC1=O` [Compound 20, N-hexanoyl thiolactone] as the compound, how does the “TraR agonism in the antagonism assay” value [4] read?
Its value is “over 70%”.

Which results are given for `CCCCCCCC(=O)N[C@H]1CCSC1=O` [Compound 22, N-octanoyl L-thiolactone]?
fold higher concentration than OdDHL to antagonize LasR by 50% [5]: 10 fold; fold lower concentration than OHHL to antagonize LuxR by 50% [6]: 10 fold

Which “TraR agonism in the antagonism assay” value [4] does the source give for `COc1ccc(CC(=O)NC2CCSC2=O)cc1` (stereo not shown) [Compound 28] here?
Its value is 24%.

For `COc1ccc(CC(=O)N[C@H]2CCSC2=O)cc1` [Compound 29], which “agonistic activity in the TraR antagonism assay relative to OOHL” value [4] is on record?
Its value is 2 ×.

Which results are given for `CCCCCCCCCCCC(=O)N[C@H]1CCSC1=O` [Compound 23, N-dodecanoyl thiolactone]?
EC50 fold higher / fold less active than OdDHL, E. coli LasR [7]: ~ 100 fold; EC50 fold higher / fold less active than OdDHL, P. aeruginosa LasR [8]: ~ 10 fold

With `O=C(Cc1ccc(Br)cc1)N[C@H]1CCSC1=O` [Compound 31] as the compound, how does the “TraR agonism in the antagonism assay” value [4] read?
The value was 60%.

For `CCCCCC(=O)CC(=O)N[C@H]1CCSC1=O` [Compound 18], which “fold less active than OOHL (TraR agonism)” value [9] is on record?
The value was 100 fold.

What does the source list for `CCCC(=O)CC(=O)N[C@H]1CCSC1=O` [Compound 12]?
EC50 fold higher / fold less active than OdDHL, E. coli LasR [7]: ~ 10 fold; EC50 fold higher / fold less active than OdDHL, P. aeruginosa LasR [8]: ~ 10 fold
